Measured values reported in patent publication US20200289645A1, “TREATMENTS AND METHODS FOR CONTROLLING HYPERTENSION” (Georgetown University, priority 2017, published 2020).
Entries after “also recorded” stand apart in the source; their conditions may differ.

Key:
[1] = tested on: isolated renal afferent arterioles; experiment: Isolated perfused renal afferent arteriole contractility; assay type: cell-based, mice
From the text: FIG. 4 depicts the effect of BP1 on isolated renal afferent arteriole contractility. 4A, Isolated perfused renal afferent arteriole mounted on a perfusion pipette with diameter recorded. The internal diameter is 10 to 11 micrometers under control conditions (=100%). 4B to 4D, Impact of BP1 induction and/or FGF2 knockout (FGF2−/−) on angiotensin II (AngII) or norepinephine (NE) contractility. 4B, Effect of conditional BP1 expression (BP1 ON/OFF). […] The effect of AngII in FGF2−/− mice is shown for comparison (see panel C). 4C, Effect of AngII in afferent arterioles from FGF2−/− mice. […] BP1 alone or FGF2 alone are shown for comparison. 4D, Effect of NE in afferent arterioles from wt and FGF2−/− mice. Contractility induced by NE is not affected in FGF2−/− mice.
Isolated vessels provide an approach for the analysis of vascular function that is not affected by systemic cardiovascular regulation in the intact animal. BP1 up-regulation related to human hypertension was found in the kidneys that are key organs in systemic blood pressure regulation. Thus, the impact of BP1 expression was evaluated in isolated renal afferent arterioles that are the major renal resistance vessels. […] Addition of AngII to this preparation leads to a concentration-dependent constriction. […] Thus, the AngII contractile effect depends on FGFR signaling in isolated vessels as well as in arterioles in vivo (FIG. 3B).
The blockade of AngII effects in vessels from wt mice by an FGFR kinase inhibitor (FIG. 4B) corroborates the crucial role of FGF signaling for AngII efficacy. It is noteworthy that vessels from FGF2−/− mice still contracted in response to other ligands. For example, the effect of norepinephrine (NE) was indistinguishable between FGF2−/− and wt controls (FIG. 4D) indicating a selective crosstalk between AngII and FGF signaling. Renal AngII receptor 1 (AT1R) mRNA was not changed upon induction of BP1 expression or in FGF2−/− mice.
Because FGF2 and BP1 are extracellularly acting proteins, recombinant proteins were added to renal afferent arterioles from FGF2−/− mice to assess if this would rescue AngII vasoconstriction.

FGF2−/− mice = experiment: Telemetric MAP in FGF2-/- mice after exogenously administered AngII; assay type: in vivo; conditions: FGF2−/− relative to wild-type mice
From the text: Kidneys contain amongst the highest concentrations of FGF2 protein that is immobilized in the extracellular matrix and can be released by BP1. To assess a contribution by FGF2, the efficacy of AngII was investigated and the crosstalk with BP1 in renal afferent arterioles from FGF2−/− mice. […] Also, the effect of exogenously administered AngII on MAP was reduced.

cremaster arterioles = experiment: Cremaster arteriole contractility in vivo (superfusion, intravital microscopy); design: species or system mice
Protocol: FIG. 3 depicts the effect of the induction of BP1 expression on cremaster arteriole contractility in vivo. 3A, Representative images of a single arteriole in a live animal at baseline, and after constriction or dilation by superfusion with AngII or acetylcholine respectively. The vessel diameter is recorded by intravital microphotography. 3B, Dose-response of AngII on arteriole diameter in mice with BP1 OFF (open symbols) or ON (for 48 hours; closed symbols). The FGFR kinase inhibitor PD173074 (PD) was administered intraperitoneally to a subset of animals (red symbols). […] 3C, Dose response of Phenylephrine (PE) on cremaster arteriole diameter in mice with BP1 OFF (open symbols) or ON (for 48 hours; closed symbols). Mean±SEM, n=4 animals/group.
To evaluate whether conditional BP1 expression sensitized resistance vessels in vivo, cremaster arterioles were exposed in anesthetized mice and superfused locally with vasoconstrictor or -dilator ligands. Representative intravital microscopic images of an arteriole at baseline, with AngII (constriction) or acetylcholine (dilation) superfusion is shown in FIG. 3A. […] This sensitization was prevented by pretreatment of animals with the FGFR kinase inhibitor PD173074 23 (FIG. 3B).
Thus, phenylephrine (PE) was selected as a ligand that activates alphal-adrenergic receptors. […] Neither the EC50 (2 μM) nor the maximal effect of PE were different between the BP1 ON and OFF groups (FIG. 3C). Thus, conditional expression of BP1 sensitizes arterioles to AngII in vivo. This sensitization was dependent on FGFR signaling.

[2] = tested on: conscious transgenic mice; experiment: Mean arterial pressure (MAP) by telemetry in conscious conditional BP1 transgenic mice; assay type: in vivo; conditions: night time MAP
Protocol: FIG. 2 depicts the effect of conditional expression of the BP1 transgene and of inhibitors on mean arterial pressure (MAP) and heart rate (HR). 2A, 2B, Circadian changes in MAP (A) and HR (B) by telemetry of conscious mice. Averages for 10 days before (BP1 OFF, open symbols) and 10 days after the induction of the BP1 transgene (BP1 ON, closed symbols) relative to the 24 hour clock time. Dark and light periods are indicated. Mean±SEM values (for n=10 time points) from one representative animal (total n=6). P<0.0001 by non-linear regression analysis and ANOVA. 2C, Effect of induction of BP1 transgene expression on night time MAP. Gene expression was induced by switching from a tetracycline containing to a regular chow (+DOX to −DOX; open and filled circles). Non-transgenic littermates (non-TG; triangles) were subjected to the same diet schedule. Mean±SEM of night time MAP; n=6 per group. ANOVA analysis of BP1 ON versus OFF or versus control group. ***, P<0.0001. 2D, 2E, Effect of treatment with candesartan (D) or tempol (E) on night time MAP of animals with the BP1 transgene OFF or ON. Mean±SEM; n=5 per group. *, P<0.05; **, P<0.01; ***, P<0.0001 by ANOVA.
To test the effect of conditional expression of BP1, mean arterial pressure (MAP) was monitored by telemetry in conscious transgenic mice. Under control conditions (BP1 OFF) there was a circadian rhythm of MAP that varied by 20 mm Hg between periods of activity (night time) and rest (day time). A sinus wave function described the day/night variation of the data (FIG. 2A). […] This overall increase in MAP coincided with a significant decrease in the heart rate and a dampened amplitude of circadian regulation (FIG. 2B). The increase of blood pressure occurred within two days of a switch to the tetracycline-free, regular diet in parallel with the induction of the BP1 transgene (FIG. 2C).
The increase in MAP and decrease in heart rate after induction of BP1 expression (FIG. 2A,B) was reminiscent of an angiotensin-like vasopressor effect that depends on reactive oxygen species (ROS) signaling. […]

In the case of CC[C@H](C)[C@H](NC(=O)[C@H](Cc1ccc(O)cc1)NC(=O)[C@@H](NC(=O)[C@H](CCCNC(=N)N)NC(=O)[C@@H](N)CC(=O)O)C(C)C)C(=O)N[C@@H](Cc1c[nH]cn1)C(=O)N1CCC[C@H]1C(=O)N[C@@H](Cc1ccccc1)C(=O)O [AngII, Angiotensin II], the “AngII effect in afferent arterioles after conditional BP1 transgene expression” value ([1]; BP1 ON versus OFF) is reported as “increases the AngII effect; also recorded: significantly enhanced effect”, the “contraction of afferent arterioles from FGF2-/- mice” value ([1]; FGF2−/− mice) is reported as “abolished; also recorded: failed to induce a contraction” and the “effect of exogenously administered AngII on MAP” value (FGF2−/− mice) is reported as “reduced”.
CCN(CC)CCCCNc1ncc2cc(-c3cc(OC)cc(OC)c3)c(NC(=O)NC(C)(C)C)nc2n1 [PD173074] was tested, and the “effect on AngII response in control animals” value (cremaster arterioles; BP1 OFF, intraperitoneal) was “small and insignificant effect”, the “effect on BP1-induced sensitization to AngII vasoconstriction” value (cremaster arterioles; BP1 ON, pretreatment, intraperitoneal) was “prevented” and the “effect on AngII constriction of afferent arterioles” value ([1]; 100 nM pretreatment of vessels) was “inhibited the effect of AngII”.
For CNC[C@H](O)c1cccc(O)c1 [PE, phenylephrine], the “sensitization of vessels by BP1 expression” value (cremaster arterioles; BP1 ON versus OFF) was “did not sensitize” and the EC50 (cremaster arterioles; Mus musculus, not different between BP1 ON and OFF groups, read-out: EC50 of PE on cremaster arteriole diameter) was 2000 nM.
With CC1(C)CC(O)CC(C)(C)N1[O] [Tempol, tempol] the “effect on basal MAP” value ([2]; BP1 OFF) was “reduced basal MAP”, the “effect on increase of MAP after BP1 induction” value [2] was “prevented the increase in MAP after BP1 induction” and the “effect on increase of MAP after BP1 induction” value ([2]; listed as tempol) was “prevented”.
For NC[C@H](O)c1ccc(O)c(O)c1 [norepinephrine], the “contractility in FGF2-/- versus wt afferent arterioles” value [1] was “indistinguishable” and the “contractility in FGF2-/- versus wt afferent arterioles” value ([1]; listed as NE) was “not affected”.
For “FGF2: recombinant fibroblast growth factor 2 protein”, the “rescue of AngII vasoconstriction in afferent arterioles from FGF2-/- mice” value ([1]; recombinant proteins added, 20 ng/ml for 30 min) was “did not impact the AngII response”.
